Six compounds from ChEMBL document CHEMBL6092123, “Configuration of two cysteine residues in a ring within a stapled Bim peptide affects the secondary structure and apoptotic activity” (Bioorg Med Chem Lett, 2024) can be followed below.

Data set [1] is described as follows: Drug uptake in human HeLa cells assessed as red signals at 10 uM incubated for 3 hrs by fluorescence microscopy. The data set is classed as ADME, cell-based.
Data set [2] deals with HeLa. The data set can be described thus: Induction of apoptosis in human HeLa cells assessed as green signal at 10 uM relative to control. The class given is functional.
Data set [3] can be described thus: Proteolytic stability assessed as proteinase K (unknown origin)-mediated drug degradation measured for 15 mins by Tricine-SDS-PAGE analysis. The settings on record: read-out: Drug degradation. The class given is ADME.

In the case of `CC[C@H](C)[C@@H]1NC(=O)[C@@H](NC(=O)[C@H](CCCNC(=N)N)NC(=O)[C@H](CC(C)C)NC(=O)[C@H](CCC(=O)O)NC(=O)[C@H](CCC(N)=O)NC(=O)[C@H](C)NC(=O)[C@@H](NC(=O)[C@H](Cc2c[nH]c3ccccc23)NC(=O)[C@@H](NC(=O)[C@@H](N)CCC(=O)O)[C@@H](C)CC)[C@@H](C)CC)CSCc2ccccc2CSC[C@@H](C(=O)N[C@@H](Cc2ccccc2)C(=O)N[C@@H](CC(N)=O)C(=O)N[C@@H](C)C(=O)N[C@@H](Cc2ccc(O)cc2)C(=O)N[C@@H](Cc2ccc(O)cc2)C(=O)N[C@@H](C)C(=O)N[C@@H](CCCNC(=N)N)C(=O)O)NC(=O)[C@H](CC(=O)O)NC(=O)CNC1=O`, the Drug uptake entry in data set [1] is given as “Not_active”. `CC[C@H](C)[C@@H]1NC(=O)[C@@H](NC(=O)[C@H](CCCNC(=N)N)NC(=O)[C@H](CC(C)C)NC(=O)[C@H](CCC(=O)O)NC(=O)[C@H](CCC(N)=O)NC(=O)[C@H](C)NC(=O)[C@@H](NC(=O)[C@H](Cc2c[nH]c3ccccc23)NC(=O)[C@@H](NC(=O)[C@@H](N)CCC(=O)O)[C@@H](C)CC)[C@@H](C)CC)CSCc2ccccc2CSC[C@H](C(=O)N[C@@H](Cc2ccccc2)C(=O)N[C@@H](CC(N)=O)C(=O)N[C@@H](C)C(=O)N[C@@H](Cc2ccc(O)cc2)C(=O)N[C@@H](Cc2ccc(O)cc2)C(=O)N[C@@H](C)C(=O)N[C@@H](CCCNC(=N)N)C(=O)O)NC(=O)[C@H](CC(=O)O)NC(=O)CNC1=O`: the Activity in data set [2] is listed as 52%.

Turning to H-RKKRRQRRREIWIAQELRRIGDEFNAYYAR-OH, the Activity in data set [2] was found to be 37%. For the same compound, the Drug uptake result in data set [1] is “Active”. Besides, in data set [3], the metabolised at 0.25 h amounted to 95%. Take `CC[C@H](C)[C@H](NC(=O)[C@H](Cc1c[nH]c2ccccc12)NC(=O)[C@@H](NC(=O)[C@H](CCC(=O)O)NC(=O)[C@H](CCCNC(=N)N)NC(=O)[C@H](CCCNC(=N)N)NC(=O)[C@H](CCCNC(=N)N)NC(=O)[C@H](CCC(N)=O)NC(=O)[C@H](CCCNC(=N)N)NC(=O)[C@H](CCCNC(=N)N)NC(=O)[C@H](CCCCN)NC(=O)[C@H](CCCCN)NC(=O)[C@@H](N)CCCNC(=N)N)[C@@H](C)CC)C(=O)N[C@@H](C)C(=O)N[C@@H](CCC(N)=O)C(=O)N[C@@H](CCC(=O)O)C(=O)N[C@@H](CC(C)C)C(=O)N[C@@H](CCCNC(=N)N)C(=O)N[C@@H]1CSCc2ccccc2CSC[C@H](C(=O)N[C@@H](Cc2ccccc2)C(=O)N[C@@H](CC(N)=O)C(=O)N[C@@H](C)C(=O)N[C@@H](Cc2ccc(O)cc2)C(=O)N[C@@H](Cc2ccc(O)cc2)C(=O)N[C@@H](C)C(=O)N[C@@H](CCCNC(=N)N)C(=O)O)NC(=O)[C@H](CC(=O)O)NC(=O)CNC(=O)[C@H]([C@@H](C)CC)NC1=O`: in data set [2], the Activity was 9.3%. In the case of `CC[C@H](C)[C@@H]1NC(=O)[C@@H](NC(=O)[C@H](CCCNC(=N)N)NC(=O)[C@H](CC(C)C)NC(=O)[C@H](CCC(=O)O)NC(=O)[C@H](CCC(N)=O)NC(=O)[C@H](C)NC(=O)[C@@H](NC(=O)[C@H](Cc2c[nH]c3ccccc23)NC(=O)[C@@H](NC(=O)[C@H](CCC(=O)O)NC(=O)[C@H](CCCNC(=N)N)NC(=O)[C@H](CCCNC(=N)N)NC(=O)[C@H](CCCNC(=N)N)NC(=O)[C@H](CCC(N)=O)NC(=O)[C@H](CCCNC(=N)N)NC(=O)[C@H](CCCNC(=N)N)NC(=O)[C@H](CCCCN)NC(=O)[C@H](CCCCN)NC(=O)[C@@H](N)CCCNC(=N)N)[C@@H](C)CC)[C@@H](C)CC)CSCc2ccccc2CSC[C@@H](C(=O)N[C@@H](Cc2ccccc2)C(=O)N[C@@H](CC(N)=O)C(=O)N[C@@H](C)C(=O)N[C@@H](Cc2ccc(O)cc2)C(=O)N[C@@H](Cc2ccc(O)cc2)C(=O)N[C@@H](C)C(=O)N[C@@H](CCCNC(=N)N)C(=O)O)NC(=O)[C@H](CC(=O)O)NC(=O)CNC1=O`, in data set [2], the Activity is 94%. For the same compound, the Drug uptake result in data set [1] is reported as “Active”. Also, the metabolised at 0.25 h in data set [3] turned out to be 68%.

Take `CC[C@H](C)[C@H](NC(=O)[C@H](Cc1c[nH]c2ccccc12)NC(=O)[C@@H](NC(=O)[C@H](CCC(=O)O)NC(=O)[C@H](CCCNC(=N)N)NC(=O)[C@H](CCCNC(=N)N)NC(=O)[C@H](CCCNC(=N)N)NC(=O)[C@H](CCC(N)=O)NC(=O)[C@H](CCCNC(=N)N)NC(=O)[C@H](CCCNC(=N)N)NC(=O)[C@H](CCCCN)NC(=O)[C@H](CCCCN)NC(=O)[C@@H](N)CCCNC(=N)N)[C@@H](C)CC)C(=O)N[C@@H](C)C(=O)N[C@@H](CCC(N)=O)C(=O)N[C@@H](CCC(=O)O)C(=O)N[C@@H](CC(C)C)C(=O)N[C@@H](CCCNC(=N)N)C(=O)N[C@@H]1CSCc2ccccc2CSC[C@@H](C(=O)N[C@@H](Cc2ccccc2)C(=O)N[C@@H](CC(N)=O)C(=O)N[C@@H](C)C(=O)N[C@@H](Cc2ccc(O)cc2)C(=O)N[C@@H](Cc2ccc(O)cc2)C(=O)N[C@@H](C)C(=O)N[C@@H](CCCNC(=N)N)C(=O)O)NC(=O)[C@H](CC(=O)O)NC(=O)CNC(=O)[C@H]([C@@H](C)CC)NC1=O`: in data set [2], the Activity is on record as 14%.
